For 1 molecule, chromatographic logP and efficacy results are on record in patent publication US6348471B1, “Pyrimidyl oxyphenylacetic acid derivatives” (Bayer Aktiengesellschaft, priority 1997, dated 2002).

Data set [1] is described as follows: logP by HPLC (EEC directive 79/831 Annex V. A8, gradient method). It counts as physicochemical.
Experimental: The logP values were determined in accordance with EEC directive 79/831 Annex V. A8 by HPLC (gradient method, acetonitrile/0.1% aqueous phosphoric acid)
Data set [2] deals with Leptosphaeria nodorum. The data set is described as follows: Leptosphaeria nodorum test (wheat)/curative. It counts as in vivo. The conditions noted are these: curative, application rate 125 g/ha, evaluation 10 days after inoculation. As for the experimental part:
Leptosphaeria nodorum test (wheat)/curative Solvent: 10 parts by weight of N-methyl-pyrrolidone Emulsifier: 0.6 parts by weight of alkylaryl polyglycol ether To produce a suitable preparation of active compound, 1 part by weight of active compound is mixed with the stated amounts of solvent and emulsifier, and the concentrate is diluted with water to the desired concentration. To test for curative activity, young plants are sprayed with a conidia suspension of Leptosphaeria nodorum. […] The plants are placed in a greenhouse at a temperature of approximately 15° C. and a relative atmospheric humidity of approximately 80%.

The test system of data set [3] is Pyrenophora teres. In words: Pyrenophora teres test (barley)/curative. It counts as in vivo. To be noted: curative, application rate 250 g/ha, evaluation 7 days after inoculation. On the procedure:
Pyrenophora teres test (barley)/curative Solvent: 10 parts by weight of N-methyl-pyrrolidone Emulsifier: 0.6 parts by weight of alkylaryl polyglycol ether To produce a suitable preparation of active compound, 1 part by weight of active compound is mixed with the stated amounts of solvent and emulsifier, and the concentrate is diluted with water to the desired concentration. To test for curative activity, young plants are sprayed with a conidia suspension of Pyrenophora teres. The plants remain in an incubation cabin at 20° C. and 100% relative atmospheric humidity for 48 hours. The plants are subsequently sprayed with the preparation of active compound at the stated application rate. The plants are placed in a greenhouse at a temperature of approximately 20° C. and a relative atmospheric humidity of approximately 80%.

The chromatographic logP is a lipophilicity value derived from retention on a column. Low values mean a more hydrophilic compound, high ones a more lipophilic compound.

`CNC(=O)C(=NOC)c1ccccc1Oc1nccc(OC(C)C)n1` [Example 1, 2-[2-(4-isopropoxypyrimidin-2-yloxy)-phenyl]-2-methoxyimino-N-methylacetamide] returned a chromatographic logP in data set [1] of 2.2. Moreover, the efficacy entry in data set [2] is recorded as “more than 60%”; in data set [3], 70%.
